Measurements: patent US20260015332A1, “SYNTHESIS METHOD AND APPLICATION OF BENZOTHIASELENAZOLE-1-OXIDE COMPOUND AND DERIVATIVE THEREOF” (priority 2022, published 2026)

Target: M^pro protein of SARS-CoV-2 (3CLpro, P132H mutation) (Severe acute respiratory syndrome coronavirus 2, UniProt P0DTD1, P3395H)
Assay type: biochemical

## O=S1(c2ccccc2)=N[Se]c2ccccc21 (stereo not shown) [Compound 1, 1-phenylbenzo[d][1,3,2]thiaselenazole-1-ketone]
  inhibitory activity against the M^pro protein of SARS-CoV-2 compared with ebselen (EBS) control: superior to that of the ebselen (EBS) control group
